Drawing on US20230255864A1, “NOVEL COMPOSITIONS COMBINING HEMP DERIVATIVES AND AT LEAST ONE PEPTIDE AND USE THEREOF” (FRANCE COSMEPHYL-LAB, priority 2020, published 2023), this text covers IC50 and Anti-inflammatory ratio for one compound.

The subject of experiment [1] is RAW 267.4 murine macrophages. The experiment can be described thus: Cell viability of murine macrophages (WST-1 mitochondrial respiration), in parallel with NO release. The class given is cell-based. Conditions: Mus musculus, RAW267.4; non-linear regression of 3 series of experiments; positive control. The procedure: (§1) MURINS RAW 267.4 Macrophage cell line (Sigma-Aldrich, No. P6110401, Lot. 091006), low number of passages (less than 50).
(§2) Complete medium: DMEM with stabilized L-glutamine (Dulbecco's Minimum Essential Medium, PAN BIOTECH. Lot 974251) supplemented with Penicillin 100 IU/ml and streptomycin 100 μg/m1 (PAN BIOTECH, Lot 225614), and 10% inactivated calf serum (PAN BIOTECH, Lot P460518), pH 7.2, freshly prepared, stored for less than 3 weeks.
(§3) Cannabidiol (CBD) is diluted in DMSO (10 mg/mL storage solution), and subjected to an ultrasonic bath for 20 minutes. The Neutrazen™ solution is diluted in PBS (Phosphate buffer saline, Sigma-Aldrich).
(§4) RAW 267.4 murine macrophages were inoculated into 48-well tissue culture plates at a concentration of 1.10^5 cells/ml (200 μl/well) and incubated for 24 hours at 37° C. (5% CO2).
(§5) At the end of the incubation period, the culture medium was replaced with 200 μl of medium containing the appropriate concentrations of the material to be tested, and the cells were incubated at 37° C. (5% CO2) for one hour.
(§6) At the end of the incubation period, pro-inflammatory E. coli LPS was added to the cell cultures (1 μg/ml. Then the cells were incubated at 37° C. (5% CO2) for 24 hours.
In parallel with the evaluation of the release of NO, the cell viability was measured to validate the tests. Vital Stain Reagent WST-1 was used to measure cellular mitochondrial respiration. For this, the culture medium was decanted and 100 μl of WST-1 reagent ( 1/10 dilution) were added to each well. After an incubation period of 30 min at 37° C. (5% CO2), the Optical Density (OD) of each well was read at a wavelength of 450 nm by an Infinite M200 Pro fluorescence-luminescence reader (TECAN). The results obtained for the wells treated with the test material were compared with those of the untreated control wells (DMSO, 100% viability) and converted into percentage values.
Inhibition of NO release and inhibition of cell viability were expressed as a percentage relative to the negative controls: […]
(§7) The concentrations of test material causing a 50% decrease in NO release (IC50 (NO release)) and a 50% decrease in cell viability (IC50 (cell viability)) respectively were calculated using TableCurve software Version 2.0.
Analysis of the anti-inflammatory activity and of the cell viability of the cannabidiol/palmitoyl tripeptide-8 (Neutrazen™) association in a mixture by isobologram analysis. For each concentration of Neutrazen™ (0.01, 0.025, 0.05 and 0.1%), different concentrations of CBD are tested (0.01, 0.025, 0.05, 0.1, 0.25, 0.5, 1 and 2.5%) to determine both the production of NO and cell viability.
The results obtained with the different mixtures of CBD and Neutrazen™ made it possible to calculate the pairs of concentrations corresponding to a 50% reduction in the production of NO and a 50% reduction in cell viability.
On the technique in general: Tetrazolium assays rely on reduction of a dye to a coloured formazan, in cell work by metabolically active cells.

The test system of experiment [2] is murine macrophages (RAW 267.4 cell line) stimulated with LPS from E. coli. In words: In vitro anti-inflammatory test: inhibition of NO production in LPS-stimulated murine macrophages (Griess reaction). Format: cell-based.
Source text: Low-grade inflammation is strongly implicated in degenerative processes in human skin such as photoaging and atopy. The reduction of low-intensity inflammatory reactions by topical products may be necessary in the event of cutaneous aggression, to obtain optimal healing and restore the physiological balance of human skin. In order to identify new anti-inflammatory candidates, an in vitro anti-inflammatory test was developed with a murine cell line: the murine macrophage test RAW 267.4. This test was used to monitor the inhibitory effects of chemical compounds or natural extracts on the low-intensity inflammatory cascade leading to overproduction of nitrogen oxide (NO) in the endothelial wall of blood vessels.
The study was carried out to evaluate the ability of cannabidiol, palmitoyl tripeptide-8 (active ingredient in Neutrazen™), and their mixture to inhibit the pro-inflammatory cascade leading to the production of NO in murine macrophages stimulated by liposaccharides (LPS).
The in vitro anti-inflammatory test is based on the ability of murine macrophages to generate a strong inflammatory response when stimulated by antigens such as LPS. Immobilized murine macrophages (RAW 267.4 cell line) are stimulated with LPS from E. coli and exposed for 24 hours. At the end of the incubation period, the production of NO is evaluated indirectly by measuring the accumulation of nitrite/nitrate, stable final products of the oxidation of NO, in the culture medium using a method spectrophotometric based on the Griess reaction.
as §1, §2, §3
The negative control: DMSO 1% The positive control: Dexamethasone (Sigma-Aldrich) 1-5-10-50-100 μM.
as §4, §5, §6
The amount of NO released was measured in the culture supernatant by the Griess reaction. 100 μl of the supernatants were transferred into the wells of a 96-well tissue culture plate, and modified Griess reagent (SIGMA-ALDRICH) were added to each well. After a period of 15 min at room temperature, the Optical Density (OD) of each well was read at a wavelength of 540 nm by an Infinite M200 Pro fluorescence-luminescence reader (TECAN).
as §7
The anti-inflammatory ratio corresponds to the ratio between anti-inflammatory activity and toxicity. It is expressed as follows: […]
Analysis of the anti-inflammatory activity and of the cell viability of the cannabidiol/palmitoyl tripeptide-8 (Neutrazen™) association in a mixture by isobologram analysis.
(In general: The Griess reaction detects nitrite, a stable product of nitric oxide.)

Take `C[C@@H]1C[C@H]2[C@@H]3CCC4=CC(=O)C=C[C@]4(C)[C@@]3(F)[C@@H](O)C[C@]2(C)[C@@]1(O)C(=O)CO` [Dexamethasone]: the IC50 (as a rule, the concentration at which inhibition is half-maximal) in experiment [1] turned out to be 193 ± 4.25 µM; in experiment [2] (Mus musculus, RAW267.4, non-linear regression of 3 series of experiments, positive control, read-out: IC50-NO release), 2.98 µM. Besides, the Anti-inflammatory ratio in experiment [2] (ratio between anti-inflammatory activity and toxicity (IC50 NO release and IC50 cell viability)) was found to be 64.65.
